# Experimental data as given in PubChem BioAssay (NCI).
#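 1) Cells in 96-well plates. 2) Compound, 48 h, 5 concentrations. 3) Linear interpolation between surrounding doses. 4) Unreached endpoint = highest concentration. TGI: total growth inhibition.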
# Tests used:
# Test in all cases: NCI anticancer screen, dose series, 48 h
# [1] = system: 786-0 renal
# [2] = system: A498 renal
# [3] = system: A549 NSCLC
# [4] = system: ACHN renal
# [5] = system: BT-549 breast
# [6] = system: CAKI-1 renal
# [7] = system: CCRF-CEM leukemia
# [8] = system: COLO 205 colon
# [9] = system: DU-145 prostate
# [10] = system: EKVX NSCLC
# [11] = system: HCC-2998 colon
# [12] = system: HCT-116 colon
# [13] = system: HCT-15 colon
# [14] = system: HL-60(TB) leukemia
# [15] = system: HS 578T breast
# [16] = system: HT29 colon
# [17] = system: IGROV1 ovarian
# [18] = system: K-562 leukemia
# [19] = system: KM12 colon
# [20] = system: LOX IMVI melanoma
# [21] = system: M14 melanoma
# [22] = system: MALME-3M melanoma
# [23] = system: MDA-MB-231 breast
# [24] = system: MDA-MB-435
# [25] = system: MDA-N
# [26] = system: MOLT-4 leukemia
# [27] = system: NCI-H226 lung
# [28] = system: NCI-H23 lung
# [29] = system: NCI-H460 lung
# [30] = system: NCI-H522 lung
# [31] = system: NCI/ADR-RES ovarian
# [32] = system: OVCAR-5 ovarian
# [33] = system: PC-3 prostate
# [34] = system: RPMI-8226 leukemia
# [35] = system: RXF 393 renal
# [36] = system: SF-268 CNS
# [37] = system: SF-295 CNS
# [38] = system: SF-539 CNS
# [39] = system: SK-MEL-28 melanoma
# [40] = system: SK-MEL-5 melanoma
# [41] = system: SK-OV-3 ovarian
# [42] = system: SNB-19 CNS
# [43] = system: SNB-75 CNS
# [44] = system: SW-620 colon
# [45] = system: T-47D breast
# [46] = system: TK-10 renal
# [47] = system: U251 CNS
# [48] = system: UACC-257 melanoma
# [49] = system: UACC-62 melanoma
# [50] = system: UO-31 renal
# [51] = system: HOP-62 NSCLC
# [52] = system: HOP-92 NSCLC
# [53] = system: MCF7 breast
# [54] = system: OVCAR-3 ovarian
# [55] = system: OVCAR-4 ovarian
# [56] = system: OVCAR-8 ovarian
# [57] = system: SK-MEL-2 melanoma
# [58] = system: SN12C renal
# [59] = system: SR leukemia
smiles,measurement,setting,value
Nc1nn2c(C(Br)Br)cc(C(Br)Br)nc2c1[N+](=O)[O-],TGI,[1],1.08 µM
same,TGI,[2],4.72 µM
same,TGI,[3],20.1 µM
same,TGI,[4],2.1 µM
same,TGI,[5],2.09 µM
same,TGI,[6],0.954 µM
same,TGI,[7],0.51 µM
same,TGI,[8],1.94 µM
same,TGI,[9],3.46 µM
same,TGI,[10],6.45 µM
same,TGI,[11],4.52 µM
same,TGI,[12],2.23 µM
same,TGI,[13],2.34 µM
same,TGI,[14],0.431 µM
same,TGI,[15],6.28 µM
same,TGI,[16],3.28 µM
same,TGI,[17],3.38 µM
same,TGI,[18],0.857 µM
same,TGI,[19],2.83 µM
same,TGI,[20],0.799 µM
same,TGI,[21],1.81 µM
same,TGI,[22],2.14 µM
same,TGI,[23],2.95 µM
same,TGI,[24],1.76 µM
same,TGI,[25],2.26 µM
same,TGI,[26],1.21 µM
same,TGI,[27],5.5 µM
same,TGI,[28],4.61 µM
same,TGI,[29],7.5 µM
same,TGI,[30],0.248 µM
same,TGI,[31],> 34 µM
same,TGI,[32],3.12 µM
same,TGI,[33],2.73 µM
same,TGI,[34],1.72 µM
same,TGI,[35],4.35 µM
same,TGI,[36],4.8 µM
same,TGI,[37],4.46 µM
same,TGI,[38],1.16 µM
same,TGI,[39],2.88 µM
same,TGI,[40],3.06 µM
same,TGI,[41],12 µM
same,TGI,[42],3.05 µM
same,TGI,[43],2.29 µM
same,TGI,[44],0.77 µM
same,TGI,[45],5.27 µM
same,TGI,[46],2.28 µM
same,TGI,[47],2.54 µM
same,TGI,[48],3.11 µM
same,TGI,[49],4.06 µM
same,TGI,[50],2.5 µM
COc1cc(C2c3cc4c(cc3OC(N3CCCC3)C2C)OCO4)cc(OC)c1OC (centres undefined),TGI,[1],30 µM
same,TGI,[2],7.73 µM
same,TGI,[3],50.4 µM
same,TGI,[4],38.3 µM
same,TGI,[5],11.5 µM
same,TGI,[6],12 µM
same,TGI,[7],> 51.9 µM
same,TGI,[8],1.03 µM
same,TGI,[9],11.3 µM
same,TGI,[10],> 95.5 µM
same,TGI,[11],4.32 µM
same,TGI,[12],27.7 µM
same,TGI,[13],13 µM
same,TGI,[51],22.5 µM
same,TGI,[52],21.2 µM
same,TGI,[15],2.3 µM
same,TGI,[16],1.22 µM
same,TGI,[17],30.2 µM
same,TGI,[18],> 19.1 µM
same,TGI,[19],3.68 µM
same,TGI,[20],25.9 µM
same,TGI,[21],12.8 µM
same,TGI,[22],34.7 µM
same,TGI,[53],4.06 µM
same,TGI,[23],9.32 µM
same,TGI,[24],1.84 µM
same,TGI,[25],0.418 µM
same,TGI,[26],> 18.6 µM
same,TGI,[27],3.19 µM
same,TGI,[28],7.27 µM
same,TGI,[29],14.5 µM
same,TGI,[30],1.55 µM
same,TGI,[31],0.531 µM
same,TGI,[54],0.601 µM
same,TGI,[55],80.1 µM
same,TGI,[32],> 47.9 µM
same,TGI,[56],9.82 µM
same,TGI,[33],> 62.5 µM
same,TGI,[34],> 19.9 µM
same,TGI,[35],2.41 µM
same,TGI,[36],> 59.3 µM
same,TGI,[37],2.55 µM
same,TGI,[38],0.732 µM
same,TGI,[57],7.56 µM
same,TGI,[39],> 100 µM
same,TGI,[40],5.06 µM
same,TGI,[41],12.2 µM
same,TGI,[58],28 µM
same,TGI,[42],15.4 µM
same,TGI,[43],9.4 µM
same,TGI,[59],> 17.1 µM
same,TGI,[44],> 33.9 µM
same,TGI,[45],> 100 µM
same,TGI,[46],30.2 µM
same,TGI,[47],13.2 µM
same,TGI,[48],49 µM
same,TGI,[49],20.7 µM
same,TGI,[50],41.2 µM
O=c1cc(/C=C/c2ccc(O)c(O)c2)oc(/C=C/c2ccc(O)c(O)c2)c1,TGI,[1],17.7 µM
same,TGI,[2],14.4 µM
same,TGI,[3],37.1 µM
same,TGI,[4],16.1 µM
same,TGI,[5],15.2 µM
same,TGI,[6],11.4 µM
same,TGI,[7],7.74 µM
same,TGI,[8],21.6 µM
same,TGI,[9],12.8 µM
same,TGI,[10],18.1 µM
same,TGI,[11],6.92 µM
same,TGI,[12],15.5 µM
same,TGI,[13],27.6 µM
same,TGI,[51],20.2 µM
same,TGI,[52],8.78 µM
same,TGI,[15],65.9 µM
same,TGI,[16],25.3 µM
same,TGI,[17],16.6 µM
same,TGI,[18],> 20.7 µM
same,TGI,[19],16 µM
same,TGI,[20],> 25.2 µM
same,TGI,[21],16.5 µM
same,TGI,[22],19.1 µM
same,TGI,[53],30.8 µM
same,TGI,[23],21.6 µM
same,TGI,[24],11.8 µM
same,TGI,[25],16.6 µM
same,TGI,[26],19.9 µM
same,TGI,[27],28.1 µM
same,TGI,[28],25.1 µM
same,TGI,[29],21.2 µM
same,TGI,[30],4 µM
same,TGI,[31],> 65.3 µM
same,TGI,[54],10.8 µM
same,TGI,[55],11.7 µM
same,TGI,[32],44.8 µM
same,TGI,[56],22.4 µM
same,TGI,[33],17.6 µM
same,TGI,[34],> 27.4 µM
same,TGI,[35],9.12 µM
same,TGI,[36],13.2 µM
same,TGI,[37],22.7 µM
same,TGI,[38],6.73 µM
same,TGI,[57],9.97 µM
same,TGI,[39],31.6 µM
same,TGI,[40],13.2 µM
same,TGI,[41],21.8 µM
same,TGI,[58],16 µM
same,TGI,[42],18.2 µM
same,TGI,[43],15.3 µM
same,TGI,[59],8.52 µM
same,TGI,[44],> 26.8 µM
same,TGI,[45],9.5 µM
same,TGI,[46],19.4 µM
same,TGI,[47],9.57 µM
same,TGI,[48],17.8 µM
same,TGI,[49],6.43 µM
same,TGI,[50],15.8 µM
c1ccc2c(c1)[nH]c1nc3cc(-c4ccc5nc6c(nc5c4)[nH]c4ccccc46)ccc3nc12,TGI,[1],> 100 µM
same,TGI,[2],> 100 µM
same,TGI,[3],> 100 µM
same,TGI,[4],> 100 µM
same,TGI,[5],> 100 µM
same,TGI,[6],> 100 µM
same,TGI,[7],> 100 µM
same,TGI,[9],> 100 µM
same,TGI,[10],> 100 µM
same,TGI,[11],> 100 µM
same,TGI,[12],> 100 µM
same,TGI,[13],> 32.3 µM
same,TGI,[14],> 100 µM
same,TGI,[51],> 100 µM
same,TGI,[52],> 21.5 µM
same,TGI,[15],> 100 µM
same,TGI,[16],> 100 µM
same,TGI,[17],> 100 µM
same,TGI,[19],> 100 µM
same,TGI,[20],> 100 µM
same,TGI,[21],> 100 µM
same,TGI,[22],> 100 µM
same,TGI,[53],> 100 µM
same,TGI,[23],97 µM
same,TGI,[24],> 100 µM
same,TGI,[25],> 100 µM
same,TGI,[26],> 100 µM
same,TGI,[27],> 100 µM
same,TGI,[28],> 100 µM
same,TGI,[29],> 100 µM
same,TGI,[30],78.4 µM
same,TGI,[55],> 100 µM
same,TGI,[32],> 100 µM
same,TGI,[56],> 100 µM
same,TGI,[33],> 100 µM
same,TGI,[34],> 100 µM
same,TGI,[35],> 100 µM
same,TGI,[36],> 100 µM
same,TGI,[37],> 100 µM
same,TGI,[57],> 100 µM
same,TGI,[39],> 100 µM
same,TGI,[40],> 100 µM
same,TGI,[41],> 100 µM
same,TGI,[58],> 100 µM
same,TGI,[42],> 100 µM
same,TGI,[43],> 100 µM
same,TGI,[44],> 100 µM
same,TGI,[45],> 100 µM
same,TGI,[46],> 100 µM
same,TGI,[47],> 100 µM
same,TGI,[48],> 100 µM
same,TGI,[49],> 100 µM
same,TGI,[50],> 100 µM
